Test results from PMC5354814, “In silico and in vitro drug screening identifies new therapeutic approaches for Ewing sarcoma” (Oncotarget, 2016).
“Also recorded” adds a separate entry of the source. Read-outs that look alike come from different tables or passages of the source.

Tests used:
[1] = cited from earlier work; for tumors of the renal tubular epithelium: 12-month study, rats
[2] = set-up: method as in ref 19 (a number printed in a supplementary file, which may have a reference list of its own: not looked up in the article's list); conditions: 5 and 10 µg gold/kg for 2 weeks; cited from earlier work
[3] = set-up: method as in ref 19 (a number printed in a supplementary file, which may have a reference list of its own: not looked up in the article's list); conditions: rats, cited from earlier work
[4] = set-up: method as in ref 19 (a number printed in a supplementary file, which may have a reference list of its own: not looked up in the article's list); conditions: intravenous, 20 mg auranofin/kg; cited from earlier work
human monocytes = tested on: human monocytes; set-up: method as in ref 19 (a number printed in a supplementary file, which may have a reference list of its own: not looked up in the article's list); conditions: 0.125 µg auranofin/mL; cited from earlier work
[5] = tested on: human neutrophil and monocyte; set-up: method as in ref 19 (a number printed in a supplementary file, which may have a reference list of its own: not looked up in the article's list); conditions: 0.1 - 1.0 µg auranofin/mL; cited from earlier work
Salmonella = tested on: Salmonella; set-up: method as in ref 18, ref 19; conditions: cited from earlier work
[6] = set-up: method as in ref 19 (a number printed in a supplementary file, which may have a reference list of its own: not looked up in the article's list); conditions: 5 and 10 mg gold/kg p.o.; cited from earlier work
[7] = cited from earlier work
human lymphocytes = tested on: human lymphocytes; set-up: method as in ref 19 (a number printed in a supplementary file, which may have a reference list of its own: not looked up in the article's list); conditions: 1.25 µg auranofin/mL; cited from earlier work
SK-ES-1 = experiment: In vitro high-throughput screen of FDA-approved drug library (CellTiter-Glo); assay type: cell-based; conditions: 1 μmol/L drug, 72 hours
Description: (§1) We screened, in parallel to the three computational approaches, an FDA-approved drug library containing 2,316 drugs (1,536 unique chemical entities). […] The drug screening study protocol employed is summarized in Supplementary Table S1.
(§2) Cells were grown to 80–90% confluence, harvested and aliquoted into 384-well plates (black μClear microplates, Greiner bio-one, Germany) at concentrations of 750–1,500 cells per well in a total volume of 25 μl/well using a Matrix Wellmate (Thermo Scientific). Cells were cultured for 72 hours in a 5% CO2 atmosphere at 37°C. Aliquots of 25 μl CellTiter-Glo® Reagent (Promega) were added directly to each well, the plates were incubated at room temperature for 20 min and the luminescence signal was measured according to the manufacturer's protocol. The measurements were made using Infinite® M200 Pro plate reader (Tecan, Switzerland). […] Data were normalized to percentage inhibition. […]
(§3) (A) Color scale for drug inhibition values. […]

A673 = experiment: as above; assay type: cell-based; conditions: 1 μmol/L drug, 72 hours
Description: as §1, §2, §3

Hs 919.T. = experiment: as above; assay type: cell-based; conditions: 1 μmol/L drug, 72 hours, control cell line
Description: as §1, §2, §3

RD-ES = experiment: as above; assay type: cell-based; conditions: 1 μmol/L drug, 72 hours
Description: as §1, §2, §3

Rhesus monkey skin = tested on: Rhesus monkey skin; set-up: method as in ref 19 (a number printed in a supplementary file, which may have a reference list of its own: not looked up in the article's list); conditions: 1.5 x 10^-4M; cited from earlier work
[8] = tested on: human polymorphonuclear neutrophil; set-up: method as in ref 19 (a number printed in a supplementary file, which may have a reference list of its own: not looked up in the article's list); conditions: 0.1 - 1.0 µg auranofin/mL; cited from earlier work
rat lung = tested on: rat lung; set-up: method as in ref 19 (a number printed in a supplementary file, which may have a reference list of its own: not looked up in the article's list); conditions: 1.5 x 10^-4M; cited from earlier work
ovarian cancer = tested on: ovarian cancer; set-up: method as in PMID 25502607; conditions: 3 mg auranofin orally twice per day, 10 patients, 95% CI: 1.3–3.8; cited from earlier work
mouse spleen cells = tested on: mouse spleen cells; set-up: method as in ref 19 (a number printed in a supplementary file, which may have a reference list of its own: not looked up in the article's list); conditions: 1 x 10^-4M and 1 x 10^-5M; cited from earlier work
[9] = after 6 months of auranofin 3 mg BID

**Q.** Which results are given for `CC(=O)OC[C@H]1O[C@@H]([S-])[C@H](OC(C)=O)[C@@H](OC(C)=O)[C@@H]1OC(C)=O.CCP(CC)CC.[Au+]` [Auranofin, auranofin]?
**A.** tumors of the renal tubular epithelium ([1]; 3.6 mg/kg/day): did not; tumors of the renal tubular epithelium ([1]; 23 mg/kg/day): tum ors of the renal tubular epithelium; also recorded: developed adenomas of the renal tubular epithelium; frequency of renal tubular cell karyomegaly and cytomegaly and renal adenoma ([1]; 24-month study in rats, auranofin 1.0 or 2.5 mg/kg/day orally, gold sodium thiomalate 2 or 6 mg/kg twice weekly): significant incr ease; hemagglutinating IgG antibodies to SRBC and antibodies to mouse fibroblasts [2]: suppressed; chronic toxicity, histological examination ([3]; oral 3.6, 12 and 23 mg/kg/day, 12 months): dose-related karyomegaly and cytomegaly of the renal tubular epithelial; subacute toxicity findings ([3]; oral 3.6, 12 and 36 mg/kg/day, 3 months): Dose-related increase in salivation, decrease in hemoglobin; adenomas of the renal cortical tubular epithelium ([3]; oral, 12 months, 23 mg/kg/day): occurred in 2 females in the high dose; 48-hour passive cutaneous anaphylaxis [4]: inhibition; ADCC of human monocytes (human monocytes): reduced; chemotaxis [5]: inhibited; mutation effects (Salmonella): no m utation effects; low-grade oxazolone-induced contact sensitivity [6]: stimulated; mean steady state blood-gold concentration ([7]; 6 mg auranofin/day, n=63 patients): 0.68 ± 0.45 µg/mL; labelled gold excreted by day 10 [7, 9]: 75%; labelled gold excreted in feces by day 10 [7, 9]: 70%; labelled gold excreted in the urine by day 10 [7, 9]: 5%; mean plasma half-life [7, 9]: 25.5 days; mean total body terminal half-life [7, 9]: 80.8 days; absorbed gold in erythrocytes / red cells [7]: approximately 40%; gold in blood associated with red cells [7]: ~40%; gold in blood associated with serum proteins [7]: 60%; gold in plasma / associated with serum proteins [7]: 60%; labelled gold excreted six months after single dose [7]: approximately 99.6%; labelled gold retained in the body six months after single dose [7]: 0.4%; time to steady state blood gold levels ([7]; clinical studies): about 3 months; time to steady state blood-gold concentrations ([7]; clinical studies): about three m onths; fraction of gold absorbed after oral administration ([7]; human, oral): ~25%; mean terminal body half-life ([7]; n = 5): 80 days; mean terminal plasma half-life of auranofin gold at steady state ([7]; n = 5): 26 days; labelled gold excreted by day 10 ([7]; single 6 mg oral dose): 77%; labelled gold excreted in the feces by day 10 ([7]; single 6 mg oral dose): 73%; labelled gold excreted in the urine by day 10 ([7]; single 6 mg oral dose): 4%; mean plasma terminal half-life ([7]; single 6 mg oral dose): 17 days; mean total body terminal half-life ([7]; single 6 mg oral dose): 58 days; absorbed gold excreted in urine ([7]; single dose): About 60%; administered dose excreted in urine ([7]; single dose): 15%; ADCC of human lymphocytes (human lymphocytes): reduced; % Inhibition SK-ES-1 (SK-ES-1): 99%; % Inhibition A673 (A673): 98%; % Inhibition Hs 919.T. (Hs 919.T.): < 50%; % Inhibition RD-ES (RD-ES): 100%; histamine release (Rhesus monkey skin): inhibition; superoxide production and phagocytosis [8]: inhibited; ovalbumin antigen-induced release of histamine (rat lung): inhibition; median PFS (ovarian cancer): 2.8 months; plaque-forming cells (mouse spleen cells): marked inhibition
